These results are taken from patent US7205433B2, “Crystal of amino acid ester salt and process for producing the same” (Ajinomoto Co., Inc., priority 2002, dated 2007).

Common to all, as to assay type: physicochemical
Data set [1] in a line: Experimental Example 4: comparison of hygroscopicity by weight gain over time (40 to 46% RH). The following applies: 24° C. The protocol:
The L-Ala-OEt HCl salt, L-Ala-OEt MsOH salt, L-Ala-OEt BsOH salt, L-Ala-OEt 4-CBS salt, L-Ala-OEt 4-EBS salt, L-Ala-OEt 2,4-DMBS salt, and L-Ala-OEt 2,5-DMBS salt were measured in an amount of about 0.3 g each, left standing in a thermostatic chamber at a temperature of 24° C. and a humidity of 40 to 46% RH, and the hygroscopicity was compared based on the weight gain with the lapse of time. A part of the crystal of the L-Ala-OEt HCl salt was liquefied in 30 minutes, and the liquefied portion increased thereafter with the lapse of time. After 100 minutes, the whole mass became like a sherbet.

Data set [2] is described as follows: Experimental Example 1: comparison of hygroscopicity by weight gain over time (44 to 45% RH). The following applies: 22 to 24° C. The protocol:
L-Ala-OEt HCl salt and L-Ala-OEt MsOH salt were measured into in a glass container in an amount of 1.6 g each, dried in vacuo at 30° C. for 5 hours, left under conditions of temperature: 22 to 24° C., humidity: 44 to 45% RH, and then the hygroscopicity was compared based on the weight gain over the lapse of time. […] The liquefied portion increased with the lapse of time, and the entire salt became liquid 750 minutes later with no observable crystal.

Data set [3] is described as follows: Experimental Example 7: evaluation of hygroscopicity by weight gain over time (60 to 66% RH). The following applies: 24 EC. The protocol: The L-Ala-OMe HCl salt, L-Ala-OMe 4-EBS salt, L-Ala-OMe 2,4-DMBS salt, and L-Ala-OMe 2,5-DMBS salt were measured in an amount of about 0.3 g each, left standing in a thermostatic chamber at temperature of 24 EC and a humidity of 60 to 66% RH, and the hygroscopicity was compared based on the weight gain with the lapse of time. A part of the crystal of the L-Ala-OMe HCl salt was liquefied in 10 minutes, and the entirety became a sherbet in 20 minute. The liquefied portion increased thereafter with the lapse of time. After 80 minutes, the whole was liquefied.

Turning to `CCOC(=O)[C@H](C)N.Cl` [L-Ala-OEt HCl salt, alanine ethyl ester hydrochloride], the “time until a part of the crystal was liquefied” value in data set [1] is 30 min. In data set [1], the “time until the whole mass became like a sherbet” value came to 100 min. For the same compound, the “weight increase rate (%)” value in data set [1] (0 minutes) is recorded as 0.00%; in data set [1] (15 minutes) it was 2.63%; in data set [1] (30 minutes), 4.56%; in data set [1] (45 minutes) it was 6.42%; in data set [1] (60 minutes) it was 7.76%; in data set [1] (75 minutes) it was 8.82%. The “weight increase rate (%)” value in data set [1] (90 minutes) worked out at 9.53%; in data set [1] (120 minutes) it was 9.89%; in data set [1] (150 minutes), 10.39%; in data set [1] (180 minutes) it was 10.69%. Besides, the “time to liquefaction of a part of the crystals” value in data set [2] is 60 min. In data set [2], the “time until the entire salt became liquid” value was 750 min. In addition, the “weight increase rate (% relative to initial weight)” value in data set [2] (0 minutes) worked out at 0.00%; in data set [2] (1 minutes) it was 1.63%; in data set [2] (2 minutes), 1.67%; in data set [2] (3 minutes) it was 1.72%; in data set [2] (4 minutes) it was 1.73%; in data set [2] (6 minutes), 1.80%. The “weight increase rate (% relative to initial weight)” value in data set [2] (10 minutes) is recorded as 1.95%; in data set [2] (15 minutes) it was 2.07%; in data set [2] (25 minutes) it was 2.29%; in data set [2] (35 minutes), 2.55%; in data set [2] (50 minutes), 2.88%; in data set [2] (60 minutes), 3.09%. The “weight increase rate (% relative to initial weight)” value in data set [2] (75 minutes) is listed as 3.38%; in data set [2] (90 minutes), 3.63%; in data set [2] (120 minutes) it was 4.10%; in data set [2] (150 minutes), 4.41%; in data set [2] (180 minutes), 4.89%; in data set [2] (750 minutes), 14.37%. The “state of the crystals” value in data set [2] (60 minutes) is reported as “(partly liquefied)”; in data set [2] (750 minutes), “(whole liquid)”.
In the case of “L-alanine methyl ester 2,5-dimethylbenzenesulfonate [L-Ala-OMe 2,5-DMBS salt]”, the “weight increase rate (%)” value is given as 0.00% in data set [3] (0 min); 0.06% in data set [3] (10 min); 0.06% in data set [3] (20 min); 0.06% in data set [3] (35 min); 0.03% in data set [3] (50 min); 0.03% in data set [3] (65 min). For the same compound, the “weight increase rate (%)” value amounted to 0.03% in data set [3] (80 min); 0.00% in data set [3] (95 min); 0.03% in data set [3] (110 min); 0.06% in data set [3] (125 min); 0.00% in data set [3] (140 min); 0.00% in data set [3] (155 min). Also, the results for the “weight increase rate (%)” value in data set [3] (170 min), in data set [3] (185 min) and in data set [3] (200 min) were 0.03%, 0.03% and 0.06%, respectively.
On to “L-alanine methyl ester 4-ethylbenzenesulfonate [L-Ala-OMe 4-EBS salt]”, for which the “weight increase rate (%)” value in data set [3] (0 min) stood at 0.00%; in data set [3] (10 min), 0.06%; in data set [3] (20 min), 0.06%; in data set [3] (35 min), 0.06%; in data set [3] (50 min), 0.06%; in data set [3] (65 min), 0.03%. Moreover, the “weight increase rate (%)” value came out at 0.06% in data set [3] (80 min); 0.06% in data set [3] (95 min); 0.03% in data set [3] (110 min); 0.06% in data set [3] (125 min); 0.06% in data set [3] (140 min); 0.06% in data set [3] (155 min). In addition, the “weight increase rate (%)” value in data set [3] (170 min), in data set [3] (185 min) and in data set [3] (200 min) was 0.06% in each case.
